Measured values published in the CheMixHub ionic liquid set.
± gives the uncertainty stated by the source.

Assay: xn = mol fraction of the nth substance listed
Details: 298.15 K, 101 kPa

With `CCCCCCCCCCCCOS(=O)(=O)[O-].[Na+]` + CCCO + O the electrical conductivity (x2 = 0.007628, x1 = 0.0002199) was 0.06003 ± 1e-05 S/m, the electrical conductivity (x2 = 0.007628, x1 = 0.0002404) was 0.06381 ± 1e-05 S/m and the electrical conductivity (x2 = 0.007629, x1 = 1.192e-05) was 0.004556 ± 1e-06 S/m. It also gave an electrical conductivity (x2 = 0.007629, x1 = 1.321e-05) of 0.005113 ± 1e-06 S/m, an electrical conductivity (x2 = 0.007629, x1 = 1.651e-05) of 0.00628 ± 1e-06 S/m and an electrical conductivity (x2 = 0.007629, x1 = 1.962e-05) of 0.007449 ± 1e-06 S/m. The electrical conductivity (x2 = 0.007629, x1 = 2.274e-05) was 0.00856 ± 1e-06 S/m, the electrical conductivity (x2 = 0.007629, x1 = 2.623e-05) was 0.009738 ± 1e-06 S/m and the electrical conductivity (x2 = 0.007629, x1 = 2.934e-05) was 0.01087 ± 1e-05 S/m. For the same compound, the electrical conductivity (x2 = 0.007629, x1 = 3.228e-05) was 0.01189 ± 1e-05 S/m, the electrical conductivity (x2 = 0.007629, x1 = 3.595e-05) was 0.01317 ± 1e-05 S/m and the electrical conductivity (x2 = 0.007629, x1 = 3.925e-05) was 0.01435 ± 1e-05 S/m. For the same compound, the electrical conductivity (x2 = 0.007629, x1 = 4.255e-05) was 0.01551 ± 1e-05 S/m, the electrical conductivity (x2 = 0.007629, x1 = 4.823e-05) was 0.0178 ± 1e-05 S/m and the electrical conductivity (x2 = 0.007629, x1 = 5.135e-05) was 0.0189 ± 1e-05 S/m. For the same compound, the electrical conductivity (x2 = 0.007629, x1 = 5.465e-05) was 0.02006 ± 1e-05 S/m, the electrical conductivity (x2 = 0.007629, x1 = 5.795e-05) was 0.02124 ± 1e-05 S/m and the electrical conductivity (x2 = 0.007629, x1 = 6.474e-05) was 0.02366 ± 1e-05 S/m. It also gave an electrical conductivity (x2 = 0.007629, x1 = 6.804e-05) of 0.02483 ± 1e-05 S/m, an electrical conductivity (x2 = 0.007629, x1 = 7.152e-05) of 0.02603 ± 1e-05 S/m and an electrical conductivity (x2 = 0.007629, x1 = 7.464e-05) of 0.02715 ± 1e-05 S/m. The electrical conductivity (x2 = 0.007629, x1 = 7.776e-05) was 0.02824 ± 1e-05 S/m, the electrical conductivity (x2 = 0.007629, x1 = 8.088e-05) was 0.02934 ± 1e-05 S/m and the electrical conductivity (x2 = 0.007629, x1 = 8.418e-05) was 0.03045 ± 1e-05 S/m. The electrical conductivity (x2 = 0.007629, x1 = 8.95e-05) was 0.03235 ± 1e-05 S/m, the electrical conductivity (x2 = 0.007629, x1 = 9.426e-05) was 0.03397 ± 1e-05 S/m and the electrical conductivity (x2 = 0.007629, x1 = 9.995e-05) was 0.03577 ± 1e-05 S/m. It also gave an electrical conductivity (x2 = 0.007629, x1 = 0.0001049) of 0.03716 ± 1e-05 S/m, an electrical conductivity (x2 = 0.007629, x1 = 0.0001146) of 0.03955 ± 1e-05 S/m and an electrical conductivity (x2 = 0.01553, x1 = 4.687e-05) of 0.01553 ± 1e-05 S/m. The electrical conductivity (x2 = 0.01553, x1 = 5.322e-05) was 0.01769 ± 1e-05 S/m, the electrical conductivity (x2 = 0.01553, x1 = 7.282e-05) was 0.0238 ± 1e-05 S/m and the electrical conductivity (x2 = 0.01553, x1 = 7.842e-05) was 0.02558 ± 1e-05 S/m. For the same compound, the electrical conductivity (x2 = 0.01553, x1 = 8.757e-05) was 0.02822 ± 1e-05 S/m, the electrical conductivity (x2 = 0.01553, x1 = 9.765e-05) was 0.03081 ± 1e-05 S/m and the electrical conductivity (x2 = 0.01553, x1 = 0.0001083) was 0.03351 ± 1e-05 S/m. For the same compound, the electrical conductivity (x2 = 0.01553, x1 = 0.0001201) was 0.03619 ± 1e-05 S/m, the electrical conductivity (x2 = 0.01553, x1 = 0.0001298) was 0.03847 ± 1e-05 S/m and the electrical conductivity (x2 = 0.01553, x1 = 0.0001533) was 0.04391 ± 1e-05 S/m. It also gave an electrical conductivity (x2 = 0.01553, x1 = 0.0001677) of 0.04711 ± 1e-05 S/m, an electrical conductivity (x2 = 0.01553, x1 = 0.0001815) of 0.05015 ± 1e-05 S/m and an electrical conductivity (x2 = 0.01553, x1 = 0.0001979) of 0.05361 ± 1e-05 S/m. The electrical conductivity (x2 = 0.01553, x1 = 0.0002319) was 0.06058 ± 1e-05 S/m, the electrical conductivity (x2 = 0.01553, x1 = 0.0002511) was 0.06442 ± 1e-05 S/m and the electrical conductivity (x2 = 0.01553, x1 = 0.0002703) was 0.06822 ± 1e-05 S/m. It also gave an electrical conductivity (x2 = 0.01553, x1 = 0.0002877) of 0.0716 ± 1e-05 S/m, an electrical conductivity (x2 = 0.01553, x1 = 0.0003082) of 0.07551 ± 1e-05 S/m and an electrical conductivity (x2 = 0.01554, x1 = 5.98e-06) of 0.002351 ± 1e-06 S/m. The electrical conductivity (x2 = 0.01554, x1 = 1.176e-05) was 0.004274 ± 1e-06 S/m, the electrical conductivity (x2 = 0.01554, x1 = 1.811e-05) was 0.006392 ± 1e-06 S/m and the electrical conductivity (x2 = 0.01554, x1 = 2.428e-05) was 0.008288 ± 1e-06 S/m. It also gave an electrical conductivity (x2 = 0.01554, x1 = 2.894e-05) of 0.009768 ± 1e-06 S/m and an electrical conductivity (x2 = 0.01554, x1 = 3.492e-05) of 0.01173 ± 1e-05 S/m.
